Measured values taken from publication PMC6213900, “Design, Synthesis, and Cytotoxic Analysis of Novel Hederagenin–Pyrazine Derivatives Based on Partial Least Squares Discriminant Analysis” (International Journal of Molecular Sciences, 2018).

Legend:
Type in all cases: cell-based, human
Conditions in all cases: 72 h
[1] = system: A549 cells; test: Annexin V-FITC/PI staining, flow cytometry
Procedure: To further depict the apoptosis induced by compound 9, apoptotic rates were analyzed by flow cytometry using Annexin V-FITC/PI staining.
According to instructions, A549 cells were stained with an annexin-V FITC apoptosis detection kit (Beijing BioDee Biotech. Co., Ltd., Beijing, China). A549 cells in the logarithmic growth phase were seeded in six-well plates (4.8 × 10^4 cells/well). After incubation for 24 h at 37 °C with 5% CO2, various concentrations (0, 2, 5, or 10 μM) of compound 9 were added to the cultures, and the plate was incubated for a further 72 h. A549 cells were collected, washed twice with cold PBS, and centrifuged at 2400 rpm for 10 min. The resulting pellet was mixed with 200 μL of binding buffer of the Annexin V-FITC kit; then, 5 μL of FITC-labeled annexin V was added and mixed gently. After incubation at 4 °C for 10 min in the dark, 5 μL of PI was added. Then, the cells were immediately analyzed with a flow cytometer at 488 nm.

[2] = system: A549 cells; test: Cell-cycle analysis by PI staining, flow cytometry
Procedure: The remarkable activity of compound 9 against the A549 cell line prompted us to investigate its effect on the cell cycle of A549 by flow cytometry.
According to instructions, A549 cells were stained with the Cell Cycle and Apoptosis Analysis Kit (Beyotime Biotechnology, Shanghai, China). A549 cells in the logarithmic growth phase were seeded in six-well plates (4.8 × 10^4 cells/well). After incubation for 24 h at 37 °C with 5% CO2, various concentrations (0, 2, 5, or 10 μM) of compound 9 were added to the cultures, and the plate was incubated for a further 72 h. A549 cells were collected, washed twice with cold PBS, and centrifuged at 2400 rpm for 10 min. The resulting pellet was mixed with 1 mL of 70% ethanol, and retained for 12 h at 4 °C, before being centrifuged at 2400 rpm for 10 min. The supernatant was discarded, and the resulting pellet was mixed with 1mL of cold PBS and centrifuged at 2400 rpm for 10 min. Then, 0.5 mL of PI staining solution was added and mixed gently. After incubation at 37 °C for 30 min, the cells were immediately analyzed with a flow cytometer at 488 nm.

[3] = system: A549 cells; test: Giemsa staining, morphological detection of apoptosis
Procedure: With an increase in dose, the phenomenon of cell shrinkage and cell disruption became more obvious.
A549 cells in the logarithmic growth phase were seeded in 12-well plates (1.2 × 10^4 cells/well). After incubation for 24 h at 37 °C with 5% CO2, various concentrations (0, 2, 4, or 6 μM) of compound 9 were added to the cultures, and the plate was incubated for further 72 h. Then, we discarded the cell culture fluid, washed twice with phosphate-buffered saline (PBS), and fixed the cells with cold methanol. The A549 cells were stained with 6% Giemsa solution for 5 min, washed with water, and dried. The cell morphological changes were observed under an inverted microscope.

What does the source list for `Cc1cncc(C(=O)OCCOC(=O)[C@]23CCC(C)(C)CC2C2=CCC4[C@@]5(C)CC[C@H](O)[C@@](C)(CO)C5CC[C@@]4(C)[C@]2(C)CC3)n1` (stereo partly drawn) [Compound 9, 2-(((4aS,6aS,6bR,9R,10S,12aR)-10-Hydroxy-9-(hydroxymethyl)-2,2,6a,6b,9,12a-hexamethyl-1,2,3,4,4a,5,6,6a,6b,7,8,8a,9,10,11,12,12a,12b,13,14b-icosahydropicene-4a-carbonyl)oxy)ethyl-6-methylpyrazine-2-carboxylate]?
percentage of apoptotic cells (early and late apoptosis) ([1]; 2 μM): 17.4%; percentage of apoptotic cells (early and late apoptosis) ([1]; 5 μM): 72.0%; percentage of apoptotic cells (early and late apoptosis) ([1]; 10 μM): 91.5%; cells in G1 phase ([2]; 2 μM): 57.46%; cells in G2 phase ([2]; 2 μM): 8.37%; cells in S phase ([2]; 2 μM): 34.17%; cells in G1 phase ([2]; 5 μM): 53.44%; cells in G2 phase ([2]; 5 μM): 0.00%; cells in S phase ([2]; 5 μM): 46.56%; cells in G1 phase ([2]; 10 μM): 39.54%; cells in G2 phase ([2]; 10 μM): 0.00%; cells in S phase ([2]; 10 μM): 60.46%; cell morphology, Giemsa staining ([3]; 2 μM): the cells had a lot of puffing and fragmentation; cell morphology, Giemsa staining ([3]; 6 μM): almost no normal cell morphology
